From patent US9221814B2, “Heterocyclic guanidine F1F0-atpase inhibitors and therapeutic uses thereof” (Lycera Corporation, priority 2012, dated 2015)
Like-named read-outs stand apart in the source and are kept apart here.

Assays:
[1] = tested on: Ramos cells; test: Cytotoxicity in Ramos cells; type: cell-based; conditions: detection limit EC50=16 μM, read-out: Ramos Cell EC50
Protocol: (§1) Exemplary compounds described in above Examples were tested for activity against F1F0-ATPase by measuring the ability of the compounds to inhibit ATP synthesis. In addition, the compounds were assessed for cytotoxicity in Ramos cells. Inhibition of F1F0-ATPase activity in synthesizing ATP and cytotoxicity in Ramos cells were measured according to the procedures described in K. M. Johnson et al. Chemistry & Biology 2005, 12, 485-496.

[2] = molecular target: T1, F1F0-ATPase (Bos taurus, UniProt P13621); test: Inhibition of F1F0-ATPase activity in synthesizing ATP (ATP synthesis inhibition); type: biochemical; conditions: detection limit IC50=16 μM, read-out: ATP Syn IC50
T1 construct: from tissue
Protocol: as §1

| IC50 [2] | SMILES | EC50 ([1]; Homo sapiens) | EC50 [1] |
| --- | --- | --- | --- |
| < 5 µM | COc1ccc(-c2cc(NC(=NC(=O)c3cn(C)nc3C(F)(F)F)NCC(C)(C)C)[nH]n2)cc1F [Compound A-130] | < 5 µM |  |
| > 16 µM | Cn1cc(C(=O)N=C(Nc2cc(-c3ccc(O)cc3F)n[nH]2)NC2CCCC2)c(C(F)(F)F)n1 [Compound A-137] | > 16 µM |  |
| 5 to 16 µM | Cc1cc(N/C(=N\C(=O)c2cc(C)oc2C(F)(F)F)NCC(C)C)[nH]n1 [Compound A-109] |  | > 16 µM |
| 5 to 16 µM | COc1ccc(-c2cc(N/C(=N\C(=O)c3cn(C)nc3C(F)(F)F)NC(C)(C)C)n[nH]2)cc1F [Compound A-128] |  | < 5 µM |
| > 16 µM | Cc1nnsc1C(=O)/N=C(/NCC(C)C)Nc1cc(-c2ccc(F)cc2)[nH]n1 [Compound A-120] |  | > 16 µM |
| < 5 µM | Cc1cc(C(=O)/N=C(\Nc2ccc(C(F)(F)F)nc2)Nc2cc(F)cc(Cl)c2)on1 [Compound A-231] | < 5 µM |  |
| < 5 µM | CCn1nc(C)cc1C(=O)/N=C(\Nc1cc(-c2ccc(F)cc2)n[nH]1)NC(C)(C)C [Compound A-53] |  | < 5 µM |
| < 5 µM | Cc1ccccc1N/C(=N/C(=O)c1cn(C)nc1C(F)(F)F)Nc1cc(-c2ccc(O)c(F)c2)n[nH]1 [Compound A-185] |  | < 5 µM |
| > 16 µM | Cc1cc(N/C(=N\C(=O)c2cc(C)oc2C(F)(F)F)NC(C)(C)C)[nH]n1 [Compound A-107] |  | > 16 µM |
| < 5 µM | Cc1ccc(-c2cc(N/C(=N\C(=O)c3cnoc3C)NC3CCCC3)n[nH]2)cc1F [Compound A-91] |  | < 5 µM |
| < 5 µM | COC[C@H](C)N/C(=N/C(=O)c1cc(C(C)(C)C)nn1C)Nc1cc(-c2ccc(F)cc2)n[nH]1 [Compound A-50] |  | < 5 µM |
| < 5 µM | Cc1cc(C(=O)/N=C(/Nc2cc(F)cc(Cl)c2)Nc2cc(C(F)(F)F)nn2C)on1 [Compound A-228] | < 5 µM |  |
| < 5 µM | O=C(N=C(Nc1cc(F)cc(Cl)c1)Nc1cc(C(F)(F)F)n[nH]1)c1nccs1 [Compound A-34] | < 5 µM |  |
| 5 to 16 µM | Cn1cc(C(=O)/N=C(\Nc2cc(-c3ccc(O)c(F)c3)[nH]n2)NC2CCCC2)c(C(F)(F)F)n1 [Compound A-134] |  | > 16 µM |
| < 5 µM | Cc1oncc1C(=O)/N=C(\Nc1cc(-c2cc(F)cc(Cl)c2)n[nH]1)NC(C)(C)C [Compound A-96] |  | < 5 µM |
| 5 to 16 µM | COc1ccc(-c2cc(N/C(=N\C(=O)c3cn(C)nc3C(F)(F)F)NC(C)C)n[nH]2)cc1F [Compound A-146] |  | < 5 µM |
| > 16 µM | CC(C)CNC(=NC(=O)c1cn(C)nc1C(F)(F)F)Nc1n[nH]c2cncc(F)c12 [Compound A-143] | 5 to 16 µM |  |
| < 5 µM | COCC(C)NC(=NC(=O)c1cn(C)nc1C(F)(F)F)Nc1n[nH]c2cc(Cl)ccc12 (stereo not drawn) [Compound A-202] |  | < 5 µM |
| < 5 µM | CCn1ccc(C(=O)/N=C(\Nc2cc(-c3ccc(F)cc3)n[nH]2)NC(C)(C)C)n1 [Compound A-60] |  | 5 to 16 µM |
| 5 to 16 µM | Cn1cc(C(=O)/N=C(\Nc2cc(-c3cc(O)ccc3F)n[nH]2)NC(C)(C)C)c(C(F)(F)F)n1 [Compound A-178] |  | 5 to 16 µM |
| < 5 µM | Cc1cc(C(=O)/N=C(/NCC(C)C)Nc2cc(-c3ccc(F)cc3)n[nH]2)c(C(F)(F)F)o1 [Compound A-203] |  | < 5 µM |

| IC50 [2] | SMILES | EC50 ([1]; Homo sapiens) | EC50 [1] |
| --- | --- | --- | --- |
| < 5 µM | Cn1cc(C(=O)/N=C(/Nc2cc(F)cc(Cl)c2)Nc2cc(-c3cc(O)ccc3Cl)n[nH]2)c(C(F)(F)F)n1 [Compound A-183] |  | 5 to 16 µM |
| < 5 µM | O=C(/N=C(/Nc1cc(F)cc(Cl)c1)Nc1cc(C(F)(F)F)n[nH]1)c1ccc(Cl)s1 [Compound A-210] |  | < 5 µM |
| < 5 µM | COc1ccc(-c2cc(N/C(=N\C(=O)c3cn(C)nc3C(F)(F)F)Nc3ccc(F)cc3F)[nH]n2)cc1F [Compound A-161] |  | > 16 µM |
| 5 to 16 µM | Cc1oncc1C(=O)/N=C(/NCc1ccc(F)cc1Cl)Nc1cc(-c2ccc(Cl)cc2)n[nH]1 [Compound A-85] |  | 5 to 16 µM |
| > 16 µM | CCOC(=O)NC1CCC(N/C(=N/C(=O)c2cn(C)nc2C(F)(F)F)NCc2ccc(Cl)c(F)c2)CC1 (stereo not drawn) [Compound A-218] | 5 to 16 µM |  |
| < 5 µM | CC(C)CN/C(=N\C(=O)c1cn(C)nc1C(F)(F)F)Nc1cc(-c2cc(F)cc(F)c2)n[nH]1 [Compound A-26] |  | < 5 µM |
| < 5 µM | Cc1oncc1C(=O)/N=C(\Nc1cc(-c2cc(F)cc(F)c2)n[nH]1)NC1(C)CCCC1 [Compound A-95] |  | < 5 µM |
| < 5 µM | Cc1cc(C(=O)/N=C(/Nc2cc(F)cc(Cl)c2)Nc2cc(C(F)(F)F)n[nH]2)on1 [Compound A-36] |  | < 5 µM |
| > 16 µM | Cc1cc(C(=O)/N=C(\Nc2cc(-c3ccc(F)cc3)n[nH]2)NC(C)C)no1 [Compound A-48] |  | > 16 µM |
|  | Cc1nc(C(=O)/N=C(/Nc2ccc(N3CCC(O)CC3)cc2)Nc2ccccc2C(C)(C)C)cs1 [Compound A-17] | > 16 µM |  |
| < 5 µM | Cn1cc(C(=O)/N=C(\Nc2cc(-c3ccc(O)c(F)c3)n[nH]2)Nc2cccc(Cl)c2F)c(C(F)(F)F)n1 [Compound A-177] |  | < 5 µM |
| 5 to 16 µM | CCC(C)N/C(=N/C(=O)c1nc(C)oc1C)Nc1cc(-c2ccc(F)cc2)n[nH]1 (stereo not drawn) [Compound A-196] |  | < 5 µM |
| 5 to 16 µM | COc1cccc(CN/C(=N/C(=O)c2ccn(C)n2)Nc2cc(-c3ccc(F)cc3)n[nH]2)c1 [Compound A-45] |  | 5 to 16 µM |
| 5 to 16 µM | Cn1cc(C(=O)/N=C(\Nc2n[nH]c3cc(F)ccc23)NC(C)(C)C)c(C(F)(F)F)n1 [Compound A-206] |  | < 5 µM |
| 5 to 16 µM | Cn1cc(C(=O)/N=C(/Nc2cc(F)cc(Cl)c2)Nc2cc(-c3cc(O)ccc3F)n[nH]2)c(C(F)(F)F)n1 [Compound A-180] |  | < 5 µM |
| < 5 µM | Cn1cc(C(=O)/N=C(\Nc2cc(-c3ccc(O)c(F)c3)n[nH]2)Nc2ccccc2C(C)(C)C)c(C(F)(F)F)n1 [Compound A-167] |  | < 5 µM |
| < 5 µM | COCC(C)NC(=NC(=O)c1cc(C)nn1C)Nc1cc(-c2ccc(Cl)cc2)n[nH]1 (stereo not drawn) [Compound A-67] | 5 to 16 µM |  |
| < 5 µM | Cn1cc(C(=O)/N=C(/Nc2cc(F)cc(Cl)c2)Nc2cccc(O)n2)c(C(F)(F)F)n1 [Compound A-234] | < 5 µM |  |
| < 5 µM | CC(C)n1ccc(C(=O)/N=C(\Nc2cc(-c3ccc(F)cc3)n[nH]2)NC(C)(C)C)n1 [Compound A-56] |  | 5 to 16 µM |
| < 5 µM | COc1ccc(-c2cc(N/C(=N\C(=O)c3cn(C)nc3C(F)(F)F)Nc3ccccc3C(C)(C)C)[nH]n2)cc1F [Compound A-158] |  | > 16 µM |
|  | Cc1nc(C(=O)/N=C(\Nc2cccc(C(F)(F)F)c2)Nc2ccc3[nH]ncc3c2)cs1 [Compound A-11] | > 16 µM |  |

| IC50 [2] | SMILES | EC50 ([1]; Homo sapiens) | EC50 [1] |
| --- | --- | --- | --- |
| < 5 µM | Cc1cc(C(=O)N=C(Nc2cc(-c3cc(F)cc(F)c3)n[nH]2)NC(C)C)n(C)n1 [Compound A-81] | 5 to 16 µM |  |
| > 16 µM | Cc1cc(N/C(=N\C(=O)c2cc(C)oc2C(F)(F)F)NC(C)C)n[nH]1 [Compound A-112] |  | > 16 µM |
| < 5 µM | Cc1cc(N/C(=N\C(=O)c2cc(C)oc2C(F)(F)F)Nc2cc(F)cc(Cl)c2)n[nH]1 [Compound A-108] |  | 5 to 16 µM |
|  | Cc1nc(C(=O)/N=C(\Nc2cccc(Cl)c2)Nc2ccc3[nH]ncc3c2)cs1 [Compound A-23] | > 16 µM |  |
|  | Cc1nc(C(=O)/N=C(\Nc2cccc(C(F)(F)F)c2)Nc2ccc3[nH]c(=O)oc3c2)cs1 [Compound A-12] | > 16 µM |  |
|  | Cc1nc(C(=O)/N=C(/Nc2ccc(F)cc2)Nc2ccc(Cl)cc2)cs1 [Compound A-18] | > 16 µM |  |
|  | Cc1nc(C(=O)/N=C(/Nc2ccc(F)cc2)Nc2cccc(C(F)(F)F)c2)cs1 [Compound A-10] | > 16 µM |  |
|  | Cc1nc(C(=O)/N=C(\Nc2ccc(Cl)cc2)Nc2ccc3[nH]c(=O)oc3c2)cs1 [Compound A-20] | > 16 µM |  |
|  | Cc1nc(C(=O)/N=C(/Nc2ccc(F)cc2)Nc2ccccc2C(C)(C)C)cs1 [Compound A-14] | > 16 µM |  |
|  | Cc1nc(C(=O)/N=C(/Nc2ccc(N3CCC(O)CC3)cc2)Nc2cccc(C(F)(F)F)c2)cs1 [Compound A-13] | > 16 µM |  |
|  | Cc1nc(C(=O)/N=C(\Nc2ccc(Cl)cc2)Nc2ccc(N3CCC(O)CC3)cc2)cs1 [Compound A-21] | > 16 µM |  |
|  | Cc1oncc1C(=O)/N=C(/NCc1ccc(F)cc1Cl)Nc1cc(-c2ccc(F)cc2)n[nH]1 [Compound A-37] |  | 5 to 16 µM |
|  | Cc1nc(C(=O)/N=C(/Nc2ccc(F)cc2)Nc2cccc(Cl)c2)cs1 [Compound A-22] | > 16 µM |  |
|  | Cc1nc(C(=O)/N=C(/Nc2ccc3[nH]ncc3c2)Nc2ccccc2C(C)(C)C)cs1 [Compound A-15] | 5 to 16 µM |  |
|  | Cc1nc(C(=O)/N=C(/Nc2ccc3[nH]c(=O)oc3c2)Nc2ccccc2C(C)(C)C)cs1 [Compound A-16] | > 16 µM |  |
| 5 to 16 µM | Cc1cc(C(=O)N=C(Nc2cc(-c3ccc(F)cc3)[nH]n2)NC(C)(C)C)no1 [Compound A-41] |  |  |
| < 5 µM | Cn1nc(C(C)(C)C)cc1C(=O)/N=C(\Nc1cc(-c2ccc(F)cc2)n[nH]1)NC(C)(C)C [Compound A-43] |  |  |
|  | Cc1nc(C(=O)/N=C(\Nc2cccc(Cl)c2)Nc2ccc3[nH]c(=O)oc3c2)cs1 [Compound A-24] | > 16 µM |  |
| 5 to 16 µM | Cc1ccccc1CN/C(=N/C(=O)c1ccno1)Nc1cc(-c2ccc(F)cc2)n[nH]1 [Compound A-39] |  |  |
|  | Cc1nc(C(=O)/N=C(\Nc2ccc(Cl)cc2)Nc2ccc3[nH]ncc3c2)cs1 [Compound A-19] | > 16 µM |  |
